Patent publication US11286263B2, “Macrocyclic fluorine substituted indole derivatives” (The Broad Institute, Inc., priority 2017, dated 2022)
“And” between values parts separate entries of the source, which are not always exact repeats. Equal entries are not always repeated. Structures can show the parent of a compound that is named as a salt. Where two headings read alike, the source gives them in different places.

Assays:
[1] = biological target: MCL-1 (Homo sapiens (Human), UniProt Q07820, K194A/K197A/R201A); assay: Protein-protein interaction assay MCL-1/Noxa BH3 peptide (MCL-1 assay), TR-FRET; assay type: binding; conditions: MCL-1/Noxa BH3 peptide TR-FRET; median
Sequence of MCL-1 (Q07820 whole entry K194A/K197A/R201A, looked up): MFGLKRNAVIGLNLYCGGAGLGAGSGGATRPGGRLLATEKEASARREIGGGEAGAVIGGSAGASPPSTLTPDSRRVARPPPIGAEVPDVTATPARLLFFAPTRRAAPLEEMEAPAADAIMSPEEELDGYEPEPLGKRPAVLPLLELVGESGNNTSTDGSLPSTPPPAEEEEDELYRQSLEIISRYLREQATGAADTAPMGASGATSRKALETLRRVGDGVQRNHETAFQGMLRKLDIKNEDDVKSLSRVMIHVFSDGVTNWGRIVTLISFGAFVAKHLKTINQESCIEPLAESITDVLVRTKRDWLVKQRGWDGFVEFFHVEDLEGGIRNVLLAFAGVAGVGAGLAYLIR
Description: Protein-Protein Interaction Assay: MCL-1/Noxa BH3 Peptide (MCL-1 Assay)
The dose-dependent inhibition by the compounds described in this invention of the interaction between MCL-1 and the BH3 domain of Noxa (both human) was determined using a steady state binding competition assay with time-resolved fluorescence energy transfer (TR-FRET) readout. For that purpose MCL-1 (amino acids 173-321, N-terminal fused to Maltose Binding Protein (MBP) SEQ ID 1)) and a synthetic Noxa BH3-derived peptide of sequence Biotin-PEG2-PEG2-PAELEVE-Nva-ATQLRRFGDKLNFRQKLL-amide (SEQ ID 2) served as protein receptor and tracer ligand respectively. The MBP-MCL-1 was purchased from Beryllium (Bedford, Mass., USA). The expression and purification of this protein construct has been described elsewhere (DOI:10.1371/journal.pone.0125010). The Noxa BH3-derived peptide can be obtained from e.g. Biosyntan (Berlin, Germany).
In the assay 11 different concentrations of each compound (0.1 nM, 0.33 nM, 1.1 nM, 3.8 nM, 13 nM, 44 nM, 0.15 μM, 0.51 μM, 1.7 μM, 5.9 μM and 20 μM) were typically measured as duplicates in the same microtiter plate. For that, 100-fold concentrated DMSO solutions were prepared by serial dilutions (1:3.4) of a 2 mM stock solution in a clear, 384-well microtiter plate (Greiner Bio-One, Frickenhausen, Germany). From there, 50 nl were transferred in a dark test plate (Greiner Bio-One, Frickenhausen, Germany). The assay was initiated by addition of 2 μl of a 2,5-fold concentrated MBP-MCL-1 solution (usually for a 1 nM end concentration in 5 μl reaction volume) in aqueous assay buffer [50 mM Tris/HCl pH 7, 100 mM sodium chloride (NaCl), 50 mM potassium fluoride (KF), 0.005% Tween-20, 2 mM DTT, 0.1% bovine gamma globulin (BGG)] to the compounds in the assay plate. This was followed by a 10-minute incubation step at 22° C. for pre-equilibration of the putative complex between MBP-MCL-1 and the compounds. After that, 3 μl of a 1.67-fold concentrated solution (in assay buffer) consisting of Noxa BH3-derived peptide (1 nM end concentration) and TR-FRET detection reagents [1.67 nM anti-MBP-Eu cryptate and 1.67 nM streptavidin-XL665 (both from Cisbio Bioassays, Codolet, France)], were added.
The mixture was incubated in the dark for one hour at 22° C. and then overnight at 4° C. The formation of MCL-1/Noxa complexes was determined by measuring the resonance energy transfer of the anti-MBP-Eu-cryptate antibody to the streptavidin-XL665 present in the reaction. For that purpose, the fluorescence emission at 620 nm and 665 nm after excitation at 330-350 nm was measured in a TR-FRET measuring instrument, for instance a Rubystar or a Pherastar (both from BMG Lab Technologies, Offenburg, Germany) or a Viewlux (Perkin-Elmer). The ratio of the emission at 665 nm and at 622 nm was used as indicator of the amount of MCL-1/NOXA complexes present.
The resulting data (ratio) were normalized, taking 0% inhibition as the mean value of control measurements (usually 32 data points) where all reagents were included. In this case 50 nl DMSO were used instead of compounds. A 100% inhibition corresponded to the mean value of control measurements (usually 32 data points) where all reagents except MCL-1 were included. IC50 values were determined by regression analysis based on a 4 parameter equation (minimum, maximum, IC50, Hill; Y=Max+(Min−Max)/(1+(X/IC50)^Hill) using the Screener Software (Genedata).

[2] = tested on: SUDHL5; assay: Induction of caspase-3/7 activity, SUDHL5 (Assay 4); assay type: cell-based; conditions: SUDHL5 cells
Description: (§1) Induction of Caspase-3/7 Activity upon Treatment of Cells with Selected Compounds
(§2) The BH3-domain of MCL-1 sequesters pro-apoptotic proteins, thereby inhibiting apoptosis. In contrast, MCL-1 inhibitors are expected to antagonize this effect leading to an increase in apoptosis, which can be determined by measuring the activity of caspase-3/7.
(§3) The activity of caspase-3/7 was determined in DLBCL (Diffuse large B-cell lymphoma) cell lines (SUDHL5 and SUDHL10) upon treatment with different compounds, using the Caspase-Glo® 3/7 reagent from Promega (G8092).
(§4) Rim wells were excluded. The cells were incubated for 3 h hours in a humidified incubator at 37° C.
(§5) For the evaluation of the results, the background measured with “medium-only” was subtracted from all other values. […] The Bella DRC Master Sheet was used to calculate EC50s, with fixed C0=1 and Cl=plateau/max induction for the reference compound.

[3] = tested on: SUDHL10; assay: Induction of caspase-3/7 activity, SUDHL10 (Assay 4); assay type: cell-based; conditions: SUDHL10 cells
Description: as §1, §2, §3, §4, §5

[4] = tested on: SUDHL5; assay: Antiproliferation assay SUDHL5 (Assay 7); assay type: cell-based; conditions: SUDHL5 cells, CellTiter-Glo, median, read-out: IC50 Antiproli SUDHL5 [M] (median)
Description: (§6) Assessment of the Anti-Proliferative Effect of Compounds in Different Cell Lines
(§7) The impact of compounds on the proliferation of different cell lines was assessed using the CellTiter-Glo® Luminescent Cell Viability reagent from Promega (G7573).
(§8) In parallel, cells were plated in a reference (day 0) plate for time zero determination.
(§9) Rim wells were excluded. The cells were incubated for 72 h hours in a humidified incubator at 37° C. The day 0 plate was measured by adding 30 μL/well of CTG solution (CellTiter-Glo® Luminescent Cell Viability reagent, Promega G7573) to time zero wells in the reference plate followed by a 10 minutes incubation and luminescence reading at 0.1 ms. using the PHERAstar FS microplate reader (BMG Labtech).
(§10) After 72 h incubation, the treated plates were measured in the same way as the day 0 plate mentioned above.

[5] = tested on: AMO-1; assay: Antiproliferation assay AMO-1 (Assay 7); assay type: cell-based; conditions: AMO-1 cells, CellTiter-Glo, single determinations, read-out: IC50 Antiproli AMO-1
Description: as §6, §7, §8, §9, §10

[6] = tested on: A2780; assay: Antiproliferation assay A2780 (Assay 7); assay type: cell-based; conditions: A2780 cells, CellTiter-Glo, single determinations, read-out: IC50 Antiproli A2780
Description: as §6, §7, §8, §9, §10

[7] = tested on: SUDHL5; assay: Induction of cytotoxicity, SUDHL5 (Assay 6); conditions: read-out: IC50 Cytotox SUDHL5 [M] (median), SUDHL5 cells, 5 h, CellTiter-Glo
[8] = tested on: SUDHL10; assay: Induction of cytotoxicity, SUDHL10 (Assay 6); conditions: read-out: IC50 Cytotox SUDHL10 [M] (median), SUDHL10 cells, 5 h, CellTiter-Glo
[9] = tested on: MV-4-11; assay: Antiproliferation assay MV-4-11 (Assay 7); assay type: cell-based; conditions: MV-4-11 cells, CellTiter-Glo, single determinations, read-out: IC50 Antiproli MV-4-11
Description: as §6, §7, §8, §9, §10

[10] = Homo sapiens, SU-DHL-5, 3 h, Caspase-Glo 3/7, median
[11] = Homo sapiens, SU-DHL10, 3 h, Caspase-Glo 3/7, median

| SMILES | IC50 [1] | EC50 ([2]; 3 h, Caspase-Glo 3/7, median) | EC50 ([3]; 3 h, Caspase-Glo 3/7, median) | IC50 ([4]; 72 h) | IC50 ([6]; 72 h) | EC50 [2, 10] | EC50 [3, 11] | IC50 ([4]; Homo sapiens, SU-DHL-5, 72 h) | IC50 ([9]; Homo sapiens, MV4-11, 72 h) | IC50 ([6]; Homo sapiens, A2780, 72 h) | IC50 ([9]; 72 h, listed as 08) | IC50 ([6]; 72 h, listed as 08) | IC50 ([5]; 72 h) | IC50 [7] | IC50 [8] | IC50 ([9]; 72 h) | IC50 ([7]; Homo sapiens, SU-DHL-5, 5 h) | IC50 ([8]; Homo sapiens, SU-DHL10, 5 h) | IC50 ([5]; Homo sapiens, AMO1, 72 h) |
| --- | --- | --- | --- | --- | --- | --- | --- | --- | --- | --- | --- | --- | --- | --- | --- | --- | --- | --- | --- |
| Cc1c2c(nn1C)COCCCCn1c(C(=O)O)c(CCCOc3cccc4cc(F)ccc34)c3ccc(F)c-2c31 (single isomer, unassigned; enantiomer 2) [Example 14, 4-fluoro-7-{3-[(6-fluoronaphthalen-1-yl)oxy]propyl}-2,3-dimethyl-2,10,11,12,13,15-hexahydro-pyrazolo[4′,3′:9,10][1,6]oxazacycloundecino[8,7,6-hi]indole-8-carboxylic acid-N-ethylethanamine salt (enantiomer 2)] | 0.017 µM | 5.4 µM | 14 µM | 4e-06 M | 19.8 µM |  |  |  |  |  |  |  | 7.54 µM and 11.6 µM | 6e-06 M | 1.2e-05 M |  |  |  |  |
| Cc1c2c(nn1C)CNCCCCn1c(C(=O)O)c(CCCOc3cccc4ccccc34)c3ccc(F)c-2c31 (single isomer, unassigned; enantiomer 2) [Example 49, 4-fluoro-2,3-dimethyl-7-{3-[(naphthalen-1-yl)oxy]propyl}-10,11,12,13,14,15-hexahydro-2H-pyrazolo[3′,4′:8,9][1,6]diazacycloundecino[10,11,1-hi]indole-8-carboxylic acid (enantiomer 2)] | 0.04 µM | > 33 µM | > 33 µM | 1e-05 M | 15.1 µM |  |  |  |  |  |  |  | > 33 µM | > 2.7e-05 M | > 3.3e-05 M | 18.9 µM and 23.3 µM |  |  |  |
| Cc1c2c(nn1C)C[N+](C)(C)CCCCn1c(C(=O)O)c(CCCOc3cccc4ccccc34)c3ccc(F)c-2c31 [Example 50, 8-carboxy-4-fluoro-2,3,14,14-tetramethyl-7-[3-(1-naphthyloxy)propyl]-10,11,12,13,14,15-hexa-hydro-2H-pyrazolo[3′,4′:8,9][1,6]diazacycloundecino[10,11,1-hi]indol-14-ium trifluroacetate] | 0.00084 µM |  |  |  |  | 20 µM | > 33 µM | 6.1e-06 M | 13.4 µM | > 33 µM |  |  |  |  |  |  | 1.6e-05 M | > 3.3e-05 M |  |
| CCc1c2c(nn1C)COCCCCn1c(C(=O)O)c(CCCOc3cccc4ccccc34)c3ccc(F)c-2c31 (single isomer, unassigned; enantiomer 2) [Example 8, 3-ethyl-4-fluoro-2-methyl-7-{3-[(naphthalen-1-yl)oxy]propyl}-2,10,11,12,13,15-hexahydro-pyrazolo[4′,3′:9,10][1,6]oxazacycloundecino[8,7,6-hi]indole-8-carboxylic acid-N-ethylethanamine salt (enantiomer 2)] | 0.026 µM | 30 µM | > 33 µM | 1.5e-05 M |  |  |  |  |  |  | 21.3 µM | 20 µM |  | 2.7e-05 M | > 3.3e-05 M |  |  |  |  |

The remaining compounds from weak to strong by IC50 [1], led by results:

| IC50 [1] | EC50 ([2]; 3 h, Caspase-Glo 3/7, median) | EC50 ([3]; 3 h, Caspase-Glo 3/7, median) | IC50 ([4]; 72 h) | IC50 ([6]; 72 h) | EC50 [2, 10] | EC50 [3, 11] | IC50 ([4]; Homo sapiens, SU-DHL-5, 72 h) | IC50 ([9]; Homo sapiens, MV4-11, 72 h) | IC50 ([6]; Homo sapiens, A2780, 72 h) | IC50 ([9]; 72 h, listed as 08) | IC50 ([6]; 72 h, listed as 08) | SMILES | IC50 ([5]; 72 h) | IC50 [7] | IC50 [8] | IC50 ([9]; 72 h) | IC50 ([7]; Homo sapiens, SU-DHL-5, 5 h) | IC50 ([8]; Homo sapiens, SU-DHL10, 5 h) | IC50 ([5]; Homo sapiens, AMO1, 72 h) |
| --- | --- | --- | --- | --- | --- | --- | --- | --- | --- | --- | --- | --- | --- | --- | --- | --- | --- | --- | --- |
| 0.04 µM | 21 µM | > 33 µM | 1.4e-05 M | 29.6 µM |  |  |  |  |  |  |  | CCc1nn(C)c2c1-c1c(F)ccc3c(CCCOc4cccc5cc(F)ccc45)c(C(=O)O)n(c13)CCCCOC2 (single isomer, unassigned; enantiomer 2) [Example 40, 3-ethyl-4-fluoro-7-{3-[(6-fluoronaphthalen-1-yl)oxy]propyl}-1-methyl-1,10,11,12,13,15-hexahydropyrazolo[4′,3′:9,10][1,6]oxazacycloundecino[8,7,6-hi]indole-8-carboxylic acid-N-ethylethanamine salt (enantiomer 2)] | > 33 µM | 2.3e-05 M | > 2.5e-05 M | 14.3 µM and 11.6 µM |  |  |  |
| 0.0014 µM |  |  |  |  | 1.5 µM | 3.3 µM | 2.2e-06 M |  | 10.2 µM |  |  | CCc1c2c(nn1C)COCCCCn1c(C(=O)O)c(CCCOc3ccc(F)c4ccccc34)c3ccc(F)c-2c31 (racemic) [Example 26, (rac)-12-ethyl-13-fluoro-1-(3-((4-fluoronaphthalen-1-yl)oxy)propyl)-11-methyl-4,5,6,7,9,11-hexahydropyrazolo[4′,3′:9,10][1]oxa[6]azacycloundecino[8,7,6-hi]indole-2-carboxylic acid] |  |  |  |  | 1.8e-06 M | 3.7e-06 M | 4.31 µM |
